Measurements reported in publication PMC7252906 (Toxicology and applied pharmacology, 2019).
“And” between values parts separate entries of the source, which are not always exact repeats. Equal entries are not always repeated. Where two headings read alike, the source gives them in different places.

What was measured:
[1] = Radiochemical HPLC profiling of urine after [^14C]DMAE; format: in vivo, Harlan Sprague Dawley rats
[2] = as above; conditions: Oral
rodents = conditions: ref NTP 2002; cited from earlier work
[3] = for residual radioactivity remaining in tissues (excluding GI tract): male and female rats
[4] = female mice, gavage 160 mg/kg, 24 h
[5] = Formation of N,N-dimethylnitrosamine after oral DMAE; format: in vivo; conditions: rats, oral DMAE 10 to 500 mg/kg; limit of quantitation 5 pg/mL
[6] = female rats, IV 16 mg/kg, 24 h, DMAE dose 0
[7] = female rats, IV 16 mg/kg, 24 h, DMAE dose 0, listed as [^14C]choline, 16 mg/kg
[8] = female rats, gavage 160 mg/kg, 24 h, DMAE dose 0
[9] = female rats, gavage 160 mg/kg, 24 h, DMAE dose 0, listed as [^14C]choline, 160 mg/kg
[10] = female rats, gavage 160 mg/kg, 24 h, DMAE pre-treatment 100 mg/kg
[11] = female rats, gavage 160 mg/kg, 24 h, DMAE pre-treatment 500 mg/kg
[12] = male rats, IV 16 mg/kg, 24 h, DMAE dose 0
[13] = male rats, gavage 160 mg/kg, 24 h, DMAE dose 0
[14] = male rats, gavage 160 mg/kg, 24 h, DMAE pre-treatment 100 mg/kg, 1 h prior
[15] = male rats, gavage 160 mg/kg, 24 h, DMAE pre-treatment 500 mg/kg, 1 h prior
[16] = male rats, gavage 160 mg/kg, 24 h, three DMAE pre-treatments 100 mg/kg 48, 24 and 1 h prior
[17] = DMAE dose 0, listed as [^14C]choline, 160 mg/kg
[18] = DMAE pre-treatment 500 mg/kg, 1 h prior

With `C[N+](C)([O-])CCO` [DMAE Oxide] the “Estimated percentage of area of DMAE Oxide peak in urine chromatogram” value (shortened to “Estimated percentage”) ([1]; Rat/Female, [^14C]DMAE 500 mg/kg, Oral) was 45%, the “Estimated percentage” value ([1]; Rat/Male, [^14C]DMAE 10 mg/kg, IV) was 97% and the “Estimated percentage” value ([1]; Rat/Male, [^14C]DMAE 10 mg/kg, Oral) was 5%. The “Estimated percentage” value ([1]; Rat/Male, [^14C]DMAE 100 mg/kg, Oral) was 44%, the “Estimated percentage” value ([1]; Rat/Male, [^14C]DMAE 500 mg/kg, Oral) was 66% and the “Estimated percentage” value ([2]; Mouse/Female, [^14C]DMAE 10 mg/kg) was 92%. The “Estimated percentage” value ([2]; Mouse/Female, [^14C]DMAE 100 mg/kg) was 18%, the “Estimated percentage” value ([2]; Mouse/Female, [^14C]DMAE 500 mg/kg) was 34% and the “Estimated percentage” value ([2]; Mouse/Male, [^14C]DMAE 500 mg/kg) was 0%. The “Estimated percentage” value ([2]; Mouse/Male, [^14C]DMAE 500 mg/kg, listed as DMAE oxide) was “absent”.

For `C[N+](C)(C)CCO` [choline, N,N,N-trimethylaminoethanol], the “oral LD50” value (rodents) is listed as 3400 to 3900 mg/kg, the “% Dose Recovered, CO2” value [3, 6] is listed as 28.1 ± 2.90 % dose and the “% Dose Recovered, Tissues and GI Tract (includes contents)” value (from here on “% Dose Recovered, Tissues and GI Tract”) [3, 6] is listed as 54.0 ± 5.50 % dose. The “% Dose Recovered, VOCs” value [3, 6] was 0.284 ± 0.038 % dose, the “% Dose Recovered, Total Recovered” value [3, 7] was 90.1 ± 6.10 % dose and the “% Dose Recovered, Urine” value [3, 7] was 7 % dose and 7.45 ± 2.58 % dose. The “% Dose Recovered, Tissues and GI Tract” value [3, 8] was 26.1 ± 3.80 % dose, the “% Dose Recovered, Total Recovered” value [3, 8] was 91.3 ± 9.60 % dose and the “% Dose Recovered, VOCs” value [3, 8] was 0.325 ± 0.025 % dose. The “% Dose Recovered, CO2” value [3, 9] was 18 % dose and 17.8 ± 1.70 % dose, the “% Dose Recovered, Urine” value [3, 9] was 34 % dose and 34.2 ± 7.90 % dose and the “% Dose Recovered, Tissues and GI Tract” value [3, 10] was 24.7 ± 2.70 % dose. For the same compound, the “% Dose Recovered, Total Recovered” value [3, 10] was 92.9 ± 4.80 % dose, the “% Dose Recovered, VOCs” value [3, 10] was 0.268 ± 0.026 % dose and the “dose recovered in tissues (excluding GI tract)” value [3, 10] was 21%. The “% Dose Recovered, CO2” value [3, 11] was 22.4 ± 3.60 % dose, the “% Dose Recovered, Tissues and GI Tract” value [3, 11] was 25.9 ± 4.70 % dose and the “% Dose Recovered, Total Recovered” value [3, 11] was 94.1 ± 4.80 % dose. The “% Dose Recovered, Urine” value [3, 11] was 43.3 ± 5.60 % dose, the “% Dose Recovered, VOCs” value [3, 11] was 0.227 ± 0.057 % dose and the “recovery in tissues other than the GI tract” value ([3]; female rats, gavage 160 mg/kg, 24 h, [^14C]choline alone) was ~ 21%. For the same compound, the total dose recovered ([3]; female rats, gavage 160 mg/kg, range over groups) was 91–94%, the “residual radioactivity remaining in tissues (excluding GI tract)” value ([3]; IV 16 mg/kg, 24 h) was 48–49% and the “residual radioactivity remaining in tissues (excluding GI tract)” value ([3]; oral gavage, 24 h) was 17–21%. The “% Dose Recovered, CO2” value [3, 12] was 17.4 ± 2.40 % dose, the “% Dose Recovered, Tissues and GI Tract” value [3, 12] was 56.2 ± 9.90 % dose and the “% Dose Recovered, VOCs” value [3, 12] was 0.139 ± 0.035 % dose. The “% Dose Recovered, Urine” value ([3]; male rats, IV 16 mg/kg, 24 h, DMAE dose 0, listed as [^14C]choline, 16 mg/kg) was 4 % dose and 3.92 ± 0.850 % dose, the “% Dose Recovered, Tissues and GI Tract” value [3, 13] was 21.4 ± 2.80 % dose and the “% Dose Recovered, Total Recovered” value [3, 13] was 88.2 ± 5.50 % dose. The “% Dose Recovered, CO2” value ([3]; male rats, gavage 160 mg/kg, 24 h, DMAE dose 0, listed as [^14C]choline, 160 mg/kg) was 12.5 ± 2.20 % dose, the “% Dose Recovered, CO2” value [3, 14] was 12.4 ± 1.70 % dose and the “% Dose Recovered, Tissues and GI Tract” value [3, 14] was 20.4 ± 5.60 % dose. The “% Dose Recovered, Urine” value [3, 14] was 31.9 ± 4.60 % dose, the “% Dose Recovered, VOCs” value [3, 14] was 0.018 ± 0.003 % dose and the “% Dose Recovered, CO2” value [3, 15] was 15.1 ± 4.00 % dose. The “% Dose Recovered, Tissues and GI Tract” value [3, 15] was 20.0 ± 3.80 % dose, the “% Dose Recovered, Urine” value [3, 15] was 40.7 ± 6.30 % dose and the “% Dose Recovered, VOCs” value [3, 15] was 0.065 ± 0.002 % dose. The “dose recovered in tissues (excluding GI tract)” value ([3]; male rats, gavage 160 mg/kg, 24 h, [^14C]choline alone) was ~ 18%, the “dose recovered in feces” value ([3]; male rats, gavage 160 mg/kg, 24 h, pre-treatment with multiple doses of 100 mg/kg or a single dose of 500 mg/kg DMAE) was 10–12% and the “% Dose Recovered, CO2” value [3, 16] was 17.0 ± 1.70 % dose. For the same compound, the “% Dose Recovered, Tissues and GI Tract” value [3, 16] was 26.6 ± 5.30 % dose, the “% Dose Recovered, Total Recovered” value [3, 16] was 93.7 ± 2.70 % dose and the “% Dose Recovered, Urine” value [3, 16] was 39.9 ± 3.80 % dose. The “% Dose Recovered, VOCs” value [3, 16] was “below the limit of detection”, the “% Dose Recovered, Tissues and GI Tract” value ([4]; DMAE dose 0) was 18.2 ± 2.90 % dose and the “% Dose Recovered, CO2” value [4, 17] was 25 % dose and 24.5 ± 5.40 % dose. The “% Dose Recovered, Urine” value [4, 17] was 32 % dose and 31.8 ± 11.1 % dose, the “% Dose Recovered, VOCs” value [4, 17] was 4 % dose and 3.61 ± 3.75 % dose and the “% Dose Recovered, CO2” value [4, 18] was 26.4 ± 8.60 % dose. For the same compound, the “% Dose Recovered, Tissues and GI Tract” value [4, 18] was 18.4 ± 9.80 % dose, the “% Dose Recovered, VOCs” value [4, 18] was 2.41 ± 1.77 % dose and the “% Dose Recovered, Urine” value ([4]; DMAE pre-treatment 500 mg/kg, 1 h prior, listed as [^14C]choline) was 32 % dose and 32.4 ± 7.20 % dose. The “recovery in tissues (excluding GI tract)” value ([4]; [^14C]choline alone) was 15%.

In the case of `CN(C)N=O` [N,N-dimethylnitrosamine], the “N,N-dimethylnitrosamine detection” value [5] is reported as “not detected”.
